The record followed here is patent publication US11724997B2, “Compounds and compositions for treating conditions associated with APJ receptor activity” (Annapurna Bio, Inc., priority 2018, dated 2023).

Bounds are passed on as bounds.

The term EC50 denotes the concentration giving half of the maximal effect.

In this test the target is T1, APJ Receptor (Homo sapiens, UniProt P35414).
T1 sequence (P35414 1-380): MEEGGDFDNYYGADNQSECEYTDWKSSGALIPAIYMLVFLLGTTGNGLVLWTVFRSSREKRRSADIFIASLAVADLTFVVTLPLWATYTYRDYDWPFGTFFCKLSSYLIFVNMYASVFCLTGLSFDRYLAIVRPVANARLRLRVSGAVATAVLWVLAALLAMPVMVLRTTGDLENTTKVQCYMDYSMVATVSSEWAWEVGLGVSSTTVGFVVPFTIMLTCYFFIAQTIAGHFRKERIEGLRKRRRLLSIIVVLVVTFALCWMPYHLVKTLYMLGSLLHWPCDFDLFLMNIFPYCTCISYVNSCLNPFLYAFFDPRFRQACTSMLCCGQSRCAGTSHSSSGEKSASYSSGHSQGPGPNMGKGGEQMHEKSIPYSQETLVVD
Put plainly: APJ cAMP assay: inhibition of forskolin-stimulated cAMP, enzyme fragment complementation, in CHO-K1 cells stably expressing the APJ Receptor. The settings on record: CHO-K1 cell line (DiscoverX) stably expressing APJ Receptor; EC80 forskolin; 30 minutes at 37° C.; read-out: APJ cAMP EC50 Potency range. Type of test: cell-based. From the text: Activation of APJ receptor is known to inhibit forskolin-stimulated cyclic AMP (cAMP) production in cells in a pertussis toxin-sensitive manner which indicates primary coupling to the GαI subunit of the G protein heterotrimeric complex. In addition to signaling through G protein and inhibition of cAMP, APJ receptor activation also results in β-arrestin recruitment, receptor internalization and activation of extracellular-regulated kinases (ERKs).
In order to optimize functional activity directed toward Gi coupling we utilized a CHO-K1 cell line developed by DiscoverX stably expressing the APJ Receptor. Cells expressing APJR receptor were plated in a 384-well microtiter plates and incubated overnight at 37° C. with 5% CO2 to allow the cells to attach and grow. Media was then aspirated from the cells and replaced with 15 uL 2:1 Hanks Balanced Salt Solution (HBSS)/10 mM Hepes. cAMP XS+ Ab reagent. Five microliters (5 uL) of previously generated compound sample stocks at 4× final concentration in assay buffer containing 4×EC80 forskolin were then added to the cells and allowed to incubate at 37° C. for 30 minutes.
After incubation the assay signal was generated using a technology termed enzyme fragment complementation (EFC). In EFC the enzyme B-galactosidase is split into two complementary portions (EA and ED). The fragment ED is fused to cAMP and in the assay format competes with endogenous cAMP for binding to a cAMP specific antibody. Activated B-Gal is formed when exogenous EA fragment binds to free ED-cAMP (not bound to cAMP specific antibody). Activated enzyme levels are detected through conversion of B-gal chemiluminescent substrate which generates a detectable luminescence signal and read on standard microtiter plate.
The methodology for detection of cAMP using EFC requires incubation with 20 uL of cAMP XS+ ED/CL lysis cocktail for one hour followed by incubation with 20 uL cAMP XS+ EA reagent for three hours at room temperature. Microplates were read following signal generation with a PerkinElmer Envision instrument utilizing chemiluminescent signal detection.
Compound activity was analyzed using CBIS data analysis suite (ChemInnovation, CA).
Percentage activity was calculated using the following formula: % Activity=[…]×(1−(mean RLU of test sample−mean RLU of Max control)/(mean RLU of vehicle control−mean RLU of Max control))
The biological activity of the exemplified compounds of this invention determined by the assay described above is shown in Table 1. The APJ cAMP EC50 potency ranges are as follows: A: EC50<1 nM; B: 1≤EC50<100 nM; and C: 100≤EC50<10,000 nM.
A general note: cAMP levels reflect the balance of adenylyl cyclase and phosphodiesterase activity.
Turning to `CCOc1cccc(-c2nnc(C(=O)NS(=O)(=O)Cc3ncccc3F)n2-c2c(OC)cccc2OC)n1` [Example 52, 4-(2,6-Dimethoxyphenyl)-5-(6-ethoxypyridin-2-yl)-N-(((3-fluoropyridin-2-yl)methyl)sulfonyl)-4H-1,2,4-triazole-3-carboxamide], the EC50 was < 0.001 µM.
For `CCOc1cccc(-c2nnc(C(=O)NS(=O)(=O)Cc3ccccc3F)n2-c2c(OC)cccc2OC)n1` [Example 53, 4-(2,6-Dimethoxyphenyl)-5-(6-ethoxypyridin-2-yl)-N-((2-fluorobenzyl)sulfonyl)-4H-1,2,4-triazole-3-carboxamide] the value was < 0.001 µM.
On to `CCOc1cccc(-c2nnc(C(=O)NS(=O)(=O)Cc3ncn(C)n3)n2-c2c(OC)cccc2OC)n1` [Example 54, 4-(2,6-Dimethoxyphenyl)-5-(6-ethoxypyridin-2-yl)-N-(((1-methyl-1H-1,2,4-triazol-3-yl)methyl)sulfonyl)-4H-1,2,4-triazole-3-carboxamide], for which the half-maximal effective concentration (EC50) is < 0.001 µM.
For `COc1cccc(OC)c1-n1c(C(=O)NS(=O)(=O)Cc2ncn(C)n2)nnc1-c1ccc(C)o1` [Example 55, 4-(2,6-Dimethoxyphenyl)-N-(((1-methyl-1H-1,2,4-triazol-3-yl)methyl)sulfonyl)-5-(5-methylfuran-2-yl)-4H-1,2,4-triazole-3-carboxamide] the value was < 0.001 µM.
As to `CCOc1cccc(-c2nnc(C(=O)NS(=O)(=O)Cc3cccnc3)n2-c2c(OC)cccc2OC)n1` [Example 56, 4-(2,6-Dimethoxyphenyl)-5-(6-ethoxypyridin-2-yl)-N-((pyridin-3-ylmethyl)sulfonyl)-4H-1,2,4-triazole-3-carboxamide], the EC50 was < 0.001 µM.
For `CCOc1cccc(-c2nnc(C(=O)NS(=O)(=O)C(C)Cc3ccccc3)n2-c2c(OC)cccc2OC)n1` (centres unmarked) [Example 57, 4-(2,6-Dimethoxyphenyl)-5-(6-ethoxypyridin-2-yl)-N-((1-phenylpropan-2-yl)sulfonyl)-4H-1,2,4-triazole-3-carboxamide], the EC50 is < 0.001 µM.
For `COc1cccc(OC)c1-n1c(C(=O)NS(=O)(=O)Cc2ncccn2)nnc1-c1cccc(OC(F)(F)F)n1` [Example 58, 4-(2,6-Dimethoxyphenyl)-N-((pyrimidin-2-ylmethyl)sulfonyl)-5-(6-(trifluoromethoxy)pyridin-2-yl)-4H-1,2,4-triazole-3-carboxamide], the EC50 was in the range of 0.001 to 0.1 µM.
For `COc1cccc(OC)c1-n1c(C(=O)NS(=O)(=O)Cc2ncccn2)nnc1-c1cncc(C)c1` [Example 59, 4-(2,6-Dimethoxyphenyl)-5-(5-methylpyridin-3-yl)-N-((pyrimidin-2-ylmethyl)sulfonyl)-4H-1,2,4-triazole-3-carboxamide] the value was 0.1 to 10 µM.
Regarding `COc1cccc(-c2nnc(C(=O)NS(=O)(=O)Cc3ccccc3)n2-c2c(Cl)cccc2Cl)n1` [Example 60, N-(benzylsulfonyl)-4-(2,6-dichlorophenyl)-5-(6-methoxypyridin-2-yl)-4H-1,2,4-triazole-3-carboxamide], the EC50 is 0.1 to 10 µM.
The result for `COc1cccc(-c2nnc(C(=O)NS(=O)(=O)Cc3ccccc3)n2-c2c(F)cccc2F)n1` [Example 61, N-(benzylsulfonyl)-4-(2,6-difluorophenyl)-5-(6-methoxypyridin-2-yl)-4H-1,2,4-triazole-3-carboxamide] reads 0.1 to 10 µM; that for `COc1cccc(-c2nnc(C(=O)NS(=O)(=O)Cc3ccccc3)n2-c2c(OC)cccc2C(F)(F)F)n1` [Example 62, N-(benzylsulfonyl)-4-(2-methoxy-6-(trifluoromethyl)phenyl)-5-(6-methoxypyridin-2-yl)-4H-1,2,4-triazole-3-carboxamide], 0.001 to 0.1 µM.
For `COc1cccc(-c2nnc(C(=O)NS(=O)(=O)Cc3ccccc3)n2-c2c(F)cccc2OC)n1` [Example 63, N-(benzylsulfonyl)-4-(2-fluoro-6-methoxyphenyl)-5-(6-methoxypyridin-2-yl)-4H-1,2,4-triazole-3-carboxamide] the value was 0.001 to 0.1 µM; for `COc1ccc(Cn2nc(C3CC3)nc2-c2nnc(C(=O)NS(=O)(=O)Cc3ccccc3)n2-c2c(OC)cccc2OC)cc1` [Example 64, N-(benzylsulfonyl)-5-cyclopropyl-4′-(2,6-dimethoxyphenyl)-2-(4-methoxybenzyl)-2H,4′H-[3,3′-bi(1,2,4-triazole)]-5′-carboxamide], 0.1 to 10 µM; for `COc1cccc(OC)c1-n1c(C(=O)NS(=O)(=O)Cc2ccccc2)nnc1-c1nc(C2CC2)n[nH]1` [Example 65, N-(benzylsulfonyl)-5-cyclopropyl-4′-(2,6-dimethoxyphenyl)-2H,4′H-[3,3′-bi(1,2,4-triazole)]-5′-carboxamide], 0.1 to 10 µM.
